Test results as given in US12569440B2, “Solid formulation of a 1,2,4-oxadiazole derivative” (ABAXYS THERAPEUTICS, priority 2019, dated 2026).

Columns and labels:
[1] = Specific surface area by BET analysis (nitrogen adsorption-desorption at 77 K); assay type: physicochemical; conditions: for BET surface (specific surface area): nitrogen adsorption at 77 K, 0.05-0.20 P/P0
Method: Specific surface area was measured by Nitrogen adsorption-desorption analyses at 77 K with a volumetric adsorption analyser (Micromeritics 3Flex physisorption apparatus). The Brunauer—Emmet—Teller (BET) method was applied in the 0.05-0.20 P /PO range to calculate the specific surface area.

[2] = Formulation study: mixing Compound A with liquid or solid acids, resulting composition and physical stability; assay type: physicochemical; conditions: Compound A alone, before mixing
Method: In a round bottom flask, to a solution of A in anhydrous Et2O (6 mL/mmol) under argon atmosphere, the acid was added dropwise, as a pure liquid or in anhydrous Et2O (3 mL/mmol) solution. The mixture was allowed to stand for 3 h. The product was then isolated by evaporation of the solvent and was dried under vacuum.
Two different net grinding procedures were used: • Solid mixing 1: In an Eppendorf, A (200 mg, 0.5 mmol) and the acid were added. The Eppendorf was then placed in the grinding device (Retsch MM400) and allowed to stir for 90 min at 30 Hz. • Solid mixing 2: In a mortar, A (200 mg, 0.5 mmol) and acid were added and then manually grinded with a pestle.

For O=C1NS(=O)(=O)c2ccccc21 [Saccharin (after grinding), 1,1-dioxo-1,2-benzothiazol-3-one], the “BET surface (specific surface area)” value [1] was 6.7 m^2/g and the “change of specific surface area (BET)” value ([1]; saccharin after grinding vs commercial, A-2SA vs saccharin alone after same grinding procedure) was “about −30%”.

In the case of O=C1NS(=O)(=O)c2ccccc21 [Saccharin, 1,1-dioxo-1,2-benzothiazol-3-one], the “BET surface (specific surface area)” value ([1]; listed as Saccharin (commercial)) is reported as 9.9 m^2/g.

For FC(F)(F)c1ccc(-c2noc(CN3CCCC(CN4CCOCC4)C3)n2)cc1 (stereo not shown) [Compound A], the “physical form of free compound” value [2] was “oil”.
